From article PMC8424217 (The Journal of Biological Chemistry, 2021)
Peptide text beside a SMILES is read from it. * marks the point of attachment. Palmitoyl = CCCCCCCCCCCCCCCC(=O)*

Legend:
[1] = Solution NMR conformational analysis in DPC micelles; assay type: physicochemical; details: pH 5.5, 25 °C, restrained MD calculations
Description: Samples for NMR spectroscopy were prepared by dissolving the appropriate amount of peptide in 0.54 ml of ^1H2O (pH 5.5), 0.06 ml of ^2H2O to obtain a final DPC-d38 concentration of 2 mM and 200 mM. NMR spectra were recorded on a Varian INOVA 700 MHz spectrometer equipped with a z-gradient 5 mm triple-resonance probe head. All spectra were recorded at a temperature of 25 °C and were calibrated relative to TSP (0.00 ppm) as internal standard. One-dimensional (1D) NMR spectra were recorded in the Fourier mode with quadrature detection. The water signal was suppressed by gradient echo ([70]). Two dimensional (2D) DQF-COSY ([71], [72]), TOCSY ([73]), and NOESY ([74]) spectra were recorded in the phase-sensitive mode as described ([75]). Data block sizes were 2048 addresses in t2 and 512 equidistant t1 values. […] The qualitative and quantitative analyses of DQF-COSY, TOCSY, and NOESY spectra were obtained using the interactive program package XEASY ([76]). Complete ^1H NMR chemical shift assignments were effectively achieved for hUT-Pep2 and [Trp^1, Leu^2]hUT-Pep3 according to the Wüthrich procedure ([77]) via the usual systematic application of DQF-COSY, TOCSY, and NOESY experiments with the support of the XEASY software package (Tables S1 and S3). ^3JαN coupling constants were measured by 1D proton and DQF-COSY spectra. […]

hUT = molecular target: T1, hUT (Homo sapiens, UniProt Q9UKP6); assay: Antagonism of hUII- or URP-mediated G12 activation, BRET, HEK 293-hUT cells; assay type: cell-based; design: expressed in transfected cells; details: pepducin 10^−5 M for 15 min, then hUII or URP, at least three experiments in triplicate
T1 sequence (Q9UKP6 1-389): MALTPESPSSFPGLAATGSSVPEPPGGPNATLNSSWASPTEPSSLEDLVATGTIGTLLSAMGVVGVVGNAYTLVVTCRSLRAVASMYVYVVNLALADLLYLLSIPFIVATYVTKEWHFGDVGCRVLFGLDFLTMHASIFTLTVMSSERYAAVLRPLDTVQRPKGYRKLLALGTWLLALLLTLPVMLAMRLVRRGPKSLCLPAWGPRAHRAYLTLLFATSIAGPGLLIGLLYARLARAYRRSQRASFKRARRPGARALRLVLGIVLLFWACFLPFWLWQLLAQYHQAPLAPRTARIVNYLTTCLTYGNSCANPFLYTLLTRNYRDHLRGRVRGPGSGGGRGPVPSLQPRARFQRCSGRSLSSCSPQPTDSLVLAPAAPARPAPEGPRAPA
Description: Figure 10 Effect of hUT-pepducins on hUT-mediated G12activation. […] Each curve represents mean ± SEM of at least three independent concentration–response experiments performed in triplicate.
HEK 293-hUT cells were grown in DMEM culture media supplemented with 10% foetal bovine serum, HEPES, sodium pyruvate, and G418 (200 μg mL^−1). Passages were performed when cells reached 80% of confluency. Cells were initially plated in 96-well plates at a density of 10,000 cells/well. […] Then, to evaluate Gq and G12 activation, 10 μl of a 1/20 dilution (diluted before use) of coelenterazine 400A (stock at 1 mM in ethanol) in Kreb's buffer and 10 μl of the 10× appropriate concentration of peptide were added, and the luminescence was evaluated with an Infinite M1000 PRO. […] Readings were performed after 5 min using an Infinite M1000 PRO. […] BRET ratio was determined by calculating the ratio of the light emitted by GFP10 over the light emitted by the RlucII.

SMILES | conformation by NMR [1] | hUII- and URP-mediated G12 activation after pepducin pretreatment (hUT)
CCCCCCCCCCCCCCCC(=O)N[C@@H](Cc1c[nH]c2ccccc12)C(=O)N[C@@H](CC(C)C)C(=O)N[C@@H](CO)C(=O)N[C@@H](CCC(N)=O)C(=O)N[C@@H](CCCNC(=N)N)C(=O)N[C@@H](C)C(=O)N[C@@H](CO)C(=O)N[C@@H](Cc1ccccc1)C(=O)N[C@@H](CCCCN)C(=O)N[C@@H](CCCNC(=N)N)C(=O)N[C@@H](C)C(=O)N[C@@H](CCCNC(=N)N)C(=O)N[C@@H](CCCNC(=N)N)C(N)=O [[Trp^1, Leu^2]hUT-Pep3] (Palmitoyl-WLSQRASFKRARR-NH2) | high tendency of [Trp^1, Leu^2]hUT-Pep3 to fold into a helix | completely abolished hUII- and URP-associated G12 stimulation
CCCCCCCCCCCCCCCC(=O)N[C@@H](CCCNC(=N)N)C(=O)N1CCC[C@H]1C(=O)N[C@@H](CC(C)C)C(=O)N[C@@H](CC(=O)O)C(=O)N[C@H](C(=O)N[C@H](C(=O)N[C@@H](CCC(N)=O)C(=O)N[C@@H](CCCNC(=N)N)C(=O)N1CCC[C@H]1C(=O)N[C@@H](CCCCN)C(=O)NCC(=O)N[C@@H](Cc1ccc(O)cc1)C(N)=O)C(C)C)[C@@H](C)O [hUT-Pep2] (Palmitoyl-RPLDTVQRPKGY-NH2) | two type I β-turns along residues 1–4 and 3–6 and three distorted (type IV) β-turns along residues 4–7, 5–8, and 6–9 | completely abolished hUII- and URP-associated G12 stimulation
